US9163256B2, “Mutant receptors and their use in a nuclear receptor-based inducible gene expression system” (priority 2004, dated 2015)
Read-outs that look alike come from different tables or passages of the source.

Experiments:
Conditions in all cases: for Emax: NIH3T3, 40 h, read-out: Rel Max FI
[1] = target: CfEcR-DEF mutant V107I/Y127E/G (Choristoneura fumiferana, UniProt O77255, INS541G/V390I/Y410E); assay: GAL4-driven luciferase reporter assay in NIH3T3 cells; type: cell-based
Method: (§1) This construct was prepared in the same way as in switch 1.1 above except wild-type CfEcR-DEF was replaced with mutant CfEcR-DEF comprising a ligand binding domain comprising a substitution mutation selected from Table 1 below.
The Gal-4-CfEcR-DEF(VYG) mutant was created by inserting an extra glycine at the C-terminal end of EcR substitution mutant V107I/Y127E [CfECR(VY)] by PCR. Essentially, this was done in two steps: PCR-amplification of CfEcR-DEF(VYG) and substitution of the CfEcR(VY) in the vector GAL4-CfEcR DEF(VY) pBIND 1-9 with the PCR-amplified CfEcR-DEF(VYG). The CfEcR-DEF region (with the extra glycine) was amplified by using the vector GAL4-CfEcR DEF(VY) pBIND 1-9 as template and the following PCR primers: […]
(§2) DNAs were transfected into mouse NIH3T3 cells (ATCC) as follows. Standard methods for culture and maintenance of the cells were followed. Cells were harvested and plated 96-well plates at 2,500 cells per well, in 50 μL of growth medium containing 10% fetal bovine serum (FBS). Twenty-four hours later, the cells were treated with 35 μL of serum-free growth medium containing either dimethylsulfoxide (DMSO; control) or a DMSO solution of ligand. The cells were then transfected using Superfect (Qiagen Inc.) transfection reagent. For each well, 0.625 μL of Superfect was mixed with 14.2 μL of serum-free growth medium. 0.16 μg of reporter construct and 0.04 μg of each receptor construct were added to the transfection reagent mix. The contents of the transfection mix were mixed in a vortex mixer and let stand at room temperature for 30 minutes. At the end of incubation, 15 μL of transfection mix was added to the cells. The cells were maintained at 37° C. and 5% CO2 for 48 hours in 5% FBS.
(§3) Reporter Assays: Cells were harvested 40 hours after adding ligands. 125 μL of passive lysis buffer (part of Dual-Luciferase reporter assay system from Promega Corporation) were added to each well of the […] plate. The plates were placed on a rotary shaker for 15 minutes. Twenty μL of lysate were assayed. Luciferase activity was measured using Dual-Luciferase reporter assay system from Promega Corporation following the manufacturer's instructions. Fold induction (FI) activities were calculated by dividing relative light units (“RLU”) in ligand treated cells with RLU in DMSO treated cells (untreated control).

[2] = target: CfEcR-DEF mutant F109L (Choristoneura fumiferana, UniProt O77255, F392L); assay: cell-based
CfEcR-DEF mutant F109L, sequence (P28702 299-449): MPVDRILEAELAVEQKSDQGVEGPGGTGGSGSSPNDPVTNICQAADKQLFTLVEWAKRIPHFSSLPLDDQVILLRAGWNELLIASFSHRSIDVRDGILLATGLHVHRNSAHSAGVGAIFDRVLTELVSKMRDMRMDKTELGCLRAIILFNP
CfEcR-DEF mutant F109L, sequence (O77255 entry or part of it F392L): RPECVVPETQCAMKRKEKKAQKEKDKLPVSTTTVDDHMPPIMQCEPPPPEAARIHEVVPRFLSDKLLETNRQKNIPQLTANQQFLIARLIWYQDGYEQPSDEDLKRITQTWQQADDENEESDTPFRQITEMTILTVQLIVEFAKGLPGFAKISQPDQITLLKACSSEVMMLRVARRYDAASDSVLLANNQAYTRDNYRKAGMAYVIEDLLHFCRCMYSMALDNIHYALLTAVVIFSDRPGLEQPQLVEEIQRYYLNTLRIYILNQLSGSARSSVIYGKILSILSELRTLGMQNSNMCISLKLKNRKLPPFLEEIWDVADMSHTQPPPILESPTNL
Method: as §1, §2, §3

[3] = target: CfEcR-DEF mutant M92E (Choristoneura fumiferana, UniProt O77255, M375E); assay: cell-based
CfEcR-DEF mutant M92E, sequence (P28702 299-449): as the sequence (P28702 299-449) above
CfEcR-DEF mutant M92E, sequence (O77255 entry or part of it M375E): as the sequence (O77255 entry or part of it F392L) above, with M169E, L186F counted along it
Method: as §1, §2, §3

[4] = target: CfEcR-DEF mutant T52E (Choristoneura fumiferana, UniProt O77255, T335E); assay: cell-based
CfEcR-DEF mutant T52E, sequence (O77255 entry or part of it T335E): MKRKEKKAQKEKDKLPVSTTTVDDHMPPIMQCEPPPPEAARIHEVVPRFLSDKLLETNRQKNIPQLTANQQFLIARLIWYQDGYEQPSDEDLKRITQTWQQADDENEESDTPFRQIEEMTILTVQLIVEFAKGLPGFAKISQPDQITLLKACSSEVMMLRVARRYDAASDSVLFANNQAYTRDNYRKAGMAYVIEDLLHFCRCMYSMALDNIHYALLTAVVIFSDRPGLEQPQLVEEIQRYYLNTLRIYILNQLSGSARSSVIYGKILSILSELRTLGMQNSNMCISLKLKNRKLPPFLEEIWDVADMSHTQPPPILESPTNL
CfEcR-DEF mutant T52E, sequence (P28702 299-449, further chain): as the sequence (P28702 299-449) above
Method: as §1, §2, §3

[5] = target: CfEcR-DEF mutant M54W (Choristoneura fumiferana, UniProt O77255, M337W); assay: cell-based
CfEcR-DEF mutant M54W, sequence (O77255 entry or part of it M337W): as the sequence (O77255 entry or part of it F392L) above, with M131W, L186F counted along it
CfEcR-DEF mutant M54W, sequence (P28702 299-449, further chain): as the sequence (P28702 299-449) above
Method: as §1, §2, §3

[6] = target: CfEcR-DEF mutant M125R (Choristoneura fumiferana, UniProt O77255, M408R); assay: cell-based
CfEcR-DEF mutant M125R, sequence (P28702 299-449): as above
CfEcR-DEF mutant M125R, sequence (O77255 entry or part of it M408R): as the sequence (O77255 entry or part of it T335E) above, with E117T, M190R counted along it
Method: as §1, §2, §3

[7] = target: CfEcR-DEF mutant L234M (Choristoneura fumiferana, UniProt O77255, L517M); assay: cell-based
CfEcR-DEF mutant L234M, sequence (P28702 299-449): as the sequence (P28702 299-449) above
CfEcR-DEF mutant L234M, sequence (O77255 entry or part of it L517M): as the sequence (O77255 entry or part of it F392L) above, with L186F, L311M counted along it
Method: as §1, §2, §3

[8] = target: CfEcR-DEF mutant M92L (Choristoneura fumiferana, UniProt O77255, M375L); assay: cell-based
CfEcR-DEF mutant M92L, sequence (O77255 entry or part of it M375L): as the sequence (O77255 entry or part of it T335E) above, with E117T, M157L counted along it
CfEcR-DEF mutant M92L, sequence (P28702 299-449, further chain): as the sequence (P28702 299-449) above
Method: as §1, §2, §3

[9] = target: CfEcR-DEF mutant V107I/Y127E/A110P (Choristoneura fumiferana, UniProt O77255, A393P/V390I/Y410E); assay: cell-based
CfEcR-DEF mutant V107I/Y127E/A110P, sequence (P28702 299-449, stated change not applied): as the sequence (P28702 299-449) above
CfEcR-DEF mutant V107I/Y127E/A110P, sequence (O77255 entry or part of it V390I/A393P/Y410E): as the sequence (O77255 entry or part of it T335E) above, with E117T, V172I, A175P, Y192E counted along it
Method: as §1, §2, §3

[10] = target: CfEcR-DEF mutant V96L (Choristoneura fumiferana, UniProt O77255, V379L); assay: cell-based
CfEcR-DEF mutant V96L, sequence (O77255 entry or part of it V379L): as the sequence (O77255 entry or part of it T335E) above, with E117T, V161L counted along it
CfEcR-DEF mutant V96L, sequence (P28702 299-449, further chain): as the sequence (P28702 299-449) above
Method: as §1, §2, §3

[11] = target: CfEcR-DEF mutant M54T (Choristoneura fumiferana, UniProt O77255, M337T); assay: cell-based
CfEcR-DEF mutant M54T, sequence (O77255 entry or part of it M337T): as the sequence (O77255 entry or part of it F392L) above, with M131T, L186F counted along it
CfEcR-DEF mutant M54T, sequence (P28702 299-449, further chain): as the sequence (P28702 299-449) above
Method: as §1, §2, §3

[12] = target: CfEcR-DEF mutant F48L (Choristoneura fumiferana, UniProt O77255, F331L); assay: cell-based
CfEcR-DEF mutant F48L, sequence (P28702 299-449): as above
CfEcR-DEF mutant F48L, sequence (O77255 entry or part of it F331L): as the sequence (O77255 entry or part of it T335E) above, with F113L, E117T counted along it
Method: as §1, §2, §3

[13] = target: CfEcR-DEF mutant A110E (Choristoneura fumiferana, UniProt O77255, A393E); assay: cell-based
CfEcR-DEF mutant A110E, sequence (P28702 299-449, stated change not applied): as the sequence (P28702 299-449) above
CfEcR-DEF mutant A110E, sequence (O77255 entry or part of it A393E): as the sequence (O77255 entry or part of it F392L) above, with L186F, A187E counted along it
Method: as §1, §2, §3

[14] = target: CfEcR-DEF mutant R95M (Choristoneura fumiferana, UniProt O77255, R378M); assay: cell-based
CfEcR-DEF mutant R95M, sequence (P28702 299-449): as the sequence (P28702 299-449) above
CfEcR-DEF mutant R95M, sequence (O77255 entry or part of it R378M): as the sequence (O77255 entry or part of it T335E) above, with E117T, R160M counted along it
Method: as §1, §2, §3

[15] = target: CfEcR-DEF mutant Y120W (Choristoneura fumiferana, UniProt O77255, Y403W); assay: cell-based
CfEcR-DEF mutant Y120W, sequence (O77255 entry or part of it Y403W): as the sequence (O77255 entry or part of it T335E) above, with E117T, Y185W counted along it
CfEcR-DEF mutant Y120W, sequence (P28702 299-449, further chain): as the sequence (P28702 299-449) above
Method: as §1, §2, §3

[16] = target: CfEcR-DEF mutant L234I (Choristoneura fumiferana, UniProt O77255, L517I); assay: cell-based
CfEcR-DEF mutant L234I, sequence (P28702 299-449): as above
CfEcR-DEF mutant L234I, sequence (O77255 entry or part of it L517I): as the sequence (O77255 entry or part of it F392L) above, with L186F, L311I counted along it
Method: as §1, §2, §3

[17] = target: CfEcR-DEF mutant A110W (Choristoneura fumiferana, UniProt O77255, A393W); assay: cell-based
CfEcR-DEF mutant A110W, sequence (P28702 299-449, stated change not applied): as the sequence (P28702 299-449) above
CfEcR-DEF mutant A110W, sequence (O77255 entry or part of it A393W): as the sequence (O77255 entry or part of it F392L) above, with L186F, A187W counted along it
Method: as §1, §2, §3

[18] = target: CfEcR-DEF mutant N119F/V96T (Choristoneura fumiferana, UniProt O77255, N402F/V379T); assay: cell-based
CfEcR-DEF mutant N119F/V96T, sequence (O77255 entry or part of it V379T/N402F): as the sequence (O77255 entry or part of it T335E) above, with E117T, V161T, N184F counted along it
CfEcR-DEF mutant N119F/V96T, sequence (P28702 299-449, further chain): as the sequence (P28702 299-449) above
Method: as §1, §2, §3

[19] = target: CfEcR-DEF mutant V96S (Choristoneura fumiferana, UniProt O77255, V379S); assay: cell-based
CfEcR-DEF mutant V96S, sequence (O77255 entry or part of it V379S): as the sequence (O77255 entry or part of it T335E) above, with E117T, V161S counted along it
CfEcR-DEF mutant V96S, sequence (P28702 299-449, further chain): as the sequence (P28702 299-449) above
Method: as §1, §2, §3

CfEcR-DEF mutant V107I/Y127E/G, sequence (P28702 299-449, stated change not applied): as the sequence (P28702 299-449) above
CfEcR-DEF mutant V107I/Y127E/G, sequence (O77255 entry or part of it V390I/Y410E/INS541G): as the sequence (O77255 entry or part of it T335E) above, with E117T counted along it

In the case of `CC(C)(O)CC[C@@H](O)[C@](C)(O)[C@H]1CC[C@@]2(O)C3=CC(=O)[C@@H]4C[C@@H](O)[C@@H](O)C[C@]4(C)[C@H]3CC[C@]12C` [20E, 20-hydroxyecdysone], the EC50 ([1]; mutant V107I/Y127E/G, read-out: EC50) is reported as greater than 33000 nM, the “Rel Max FI” value ([1]; mutant V107I/Y127E/G, relative to max fold induction of GS-E ligand) is reported as 0.03 and the “Rel Max FI” value ([2]; mutant F109L) is reported as 0.09. The EC50 ([2]; mutant F109L, read-out: EC50) was greater than 33000 nM, the “Rel Max FI” value ([3]; mutant M92E) was 0 and the EC50 ([3]; mutant M92E, read-out: EC50) was greater than 33000 nM. The “Rel Max FI” value ([4]; mutant T52E) was 0, the EC50 ([4]; mutant T52E, read-out: EC50) was greater than 33000 nM and the “Rel Max FI” value ([5]; mutant M54W) was 0. For the same molecule, the EC50 ([5]; mutant M54W, read-out: EC50) was greater than 33000 nM, the “Rel Max FI” value ([6]; mutant M125R) was 0.01 and the EC50 ([6]; mutant M125R, read-out: EC50) was greater than 33000 nM. For the same molecule, the “Rel Max FI” value ([7]; mutant L234M) was 0, the EC50 ([7]; mutant L234M, read-out: EC50) was greater than 33000 nM and the “Rel Max FI” value ([8]; mutant M92L) was 0. The EC50 ([8]; mutant M92L, read-out: EC50) was greater than 33000 nM, the EC50 ([9]; mutant V107I/Y127E/A110P, read-out: EC50) was greater than 33000 nM and the “Rel Max FI” value ([9]; mutant V107I/Y127E/A110P, relative to max fold induction of GS-E ligand) was 0.00. For the same molecule, the “Rel Max FI” value ([10]; mutant V96L) was 0, the EC50 ([10]; mutant V96L, read-out: EC50) was greater than 33000 nM and the EC50 ([11]; mutant M54T, read-out: EC50) was greater than 33000 nM. The “Rel Max FI” value ([11]; mutant M54T, relative to max fold induction of GS-E ligand) was 0, the EC50 ([12]; mutant F48L, read-out: EC50) was greater than 33000 nM and the “Rel Max FI” value ([12]; mutant F48L, relative to max fold induction of GS-E ligand) was 0. The EC50 ([13]; mutant A110E, read-out: EC50) was greater than 33000 nM, the “Rel Max FI” value ([13]; mutant A110E, relative to max fold induction of GS-E ligand) was 0 and the “Rel Max FI” value ([14]; mutant R95M) was 0. The EC50 ([14]; mutant R95M, read-out: EC50) was greater than 33000 nM, the “Rel Max FI” value ([15]; mutant Y120W) was 0 and the EC50 ([15]; mutant Y120W, read-out: EC50) was greater than 33000 nM. The “Rel Max FI” value ([16]; mutant L234I) was 0, the EC50 ([16]; mutant L234I, read-out: EC50) was greater than 33000 nM and the “Rel Max FI” value ([17]; mutant A110W) was 0. The EC50 ([17]; mutant A110W, read-out: EC50) was greater than 33000 nM, the EC50 ([18]; mutant N119F/V96T, read-out: EC50) was roughly 8000 nM and the “Rel Max FI” value ([18]; mutant N119F/V96T, relative to max fold induction of GS-E ligand) was 0.46. The EC50 ([19]; mutant V96S, read-out: EC50) was greater than 33000 nM and the “Rel Max FI” value ([19]; mutant V96S, relative to max fold induction of GS-E ligand) was 0.02.
With `Cc1cc(C)cc(C(=O)N(NC(=O)c2cccc(C(C)C)c2C)C(C)(C)C)c1` [RG-102362, 3,5-Dimethyl-benzoic acid N-tert-butyl-N′-(3-isopropyl-2-methyl-benzoyl)-hydrazide] the EC50 [1] was 60 nM, the Emax [1] was 81% and the EC50 [2] was roughly 2500 nM. It also gave an Emax [2] of 17%, an EC50 [3] greater than 33000 nM and an Emax [3] of 4%. It also gave an EC50 [4] of 7160 nM, an Emax [4] of 34% and an EC50 [5] of 1240 nM. For the same molecule, the Emax [5] was 44%, the EC50 [6] was 10400 nM and the Emax [6] was 0%. It also gave an EC50 [7] of 2040 nM, an Emax [7] of 43% and an EC50 [8] of roughly 20000 nM. It also gave an Emax [8] of 5%, an EC50 [9] of 100 nM and an Emax [9] of 63%. For the same molecule, the EC50 [10] was 2670 nM, the Emax [10] was 58% and the EC50 [11] was 50 nM. The Emax [11] was 66%, the EC50 [12] was 560 nM and the Emax [12] was 53%. The EC50 [13] was 1020 nM, the Emax [13] was 78% and the EC50 [14] was 4280 nM. For the same molecule, the Emax [14] was 27%, the EC50 [15] was 4960 nM and the Emax [15] was 67%. For the same molecule, the EC50 [16] was 2460 nM, the Emax [16] was 44% and the EC50 [17] was 2990 nM. It also gave an Emax [17] of 55%, an EC50 [18] of roughly 10000 nM and an Emax [18] of 19%. The EC50 [19] was 2070 nM and the Emax [19] was 57%.
`CCc1cccc(C(=O)NN(C(=O)c2cc(C)cc(C)c2)C(C)(C)C)c1C` [RG-101691, 3,5-Dimethyl-benzoic acid N-tert-butyl-N′-(3-ethyl-2-methyl-benzoyl)-hydrazide] was tested, and the EC50 [1] was 20 nM, the Emax [1] was 85% and the EC50 [2] was 2340 nM. The Emax [2] was 68%, the EC50 [3] was roughly 20000 nM and the Emax [3] was 8%. The EC50 [4] was roughly 7000 nM, the Emax [4] was 57% and the EC50 [5] was 1630 nM. It also gave an Emax [5] of 75%, an EC50 [6] of roughly 10000 nM and an Emax [6] of 1%. It also gave an EC50 [7] of 1790 nM, an Emax [7] of 77% and an EC50 [8] of 9900 nM. The Emax [8] was 41%, the EC50 [9] was 340 nM and the Emax [9] was 96%. It also gave an EC50 [10] of 1680 nM, an Emax [10] of 62% and an EC50 [11] of 30 nM. For the same molecule, the Emax [11] was 71%, the EC50 [12] was 300 nM and the Emax [12] was 81%. It also gave an EC50 [13] of 850 nM, an Emax [13] of 103% and an EC50 [14] of 3300 nM. For the same molecule, the Emax [14] was 57%, the EC50 [15] was 9760 nM and the Emax [15] was 89%. It also gave an EC50 [16] of 940 nM, an Emax [16] of 73% and an EC50 [17] of 1060 nM. For the same molecule, the Emax [17] was 80%, the EC50 [18] was 3630 nM and the Emax [18] was 13%. It also gave an EC50 [19] of 870 nM and an Emax [19] of 90%.
